Measurements from patent US11700805B2, “Regeneration of plants in the presence of histone deacetylase inhibitors” (KWS SAAT SE & CO. KGaA, priority 2017, dated 2023).
“Also recorded” adds a separate entry of the source. Where two headings read alike, the source gives them in different places.

Columns and labels:
[1] = test system: Arabidopsis leaf explants; details: treatment with TSA; cited from earlier work
[2] = test system: friable calli from sugar beet leaf explants; assay: Shoot regeneration from friable calli induced in the presence of TSA; assay type: cell-based, Beta vulgaris
Description: 2. Technical Description of the Shoot Regeneration Protocol 1. The friable calli of step 4 were harvested in medium containing MS salts, 30 g/l sucrose, 1 mg/l GA3 and 1 mg/l TDZ, and transferred to separate dishes. 2. The dishes were incubated under the light (16 h) at 24° C. for 10 days. 3. Developing shoots were counted under a stereomicroscope, in order to estimate the regeneration capacity (number of shoots per initial leaf explant).

[3] = test system: cells derived from male gametophytes of diverse plant species; details: TSA added to the culture medium; cited from earlier work
[4] = test system: Arabidopsis hypocotyl explants; details: alone or in combination of kinetin and TSA; cited from earlier work
[5] = test system: leaf explants of sugar beet (Beta vulgaris); assay type: cell-based
Description: 1. Technical Description of the Sugar Beet Callus Induction Protocol
This method is based on the publication by Kischenko et al., 2005 Cell Biology International.
1. Micropropagated shoots of the genotype S706 were used as starting material. Shoots were multiplied in MS salts supplemented with 30 g/l sucrose and 0.25 mg/l benzyladenine (BAP).
2. To induce friable callus, leaf explants were isolated from micropropagated shoots and incubated in medium containing MS salts including 15 g/l sucrose and 2 mg/l BAP as a control and in the same medium supplemented with 0.01 μM TSA (B1), 0.1 μM TSA (B2), 0.5 μM TSA (B3), 1.0 μM TSA (B4), and 5.0 μM TSA (B5), at 28° C. in the dark for 7 weeks.
3. Development of callus from leaf explants was monitored during the incubation in the callus induction medium at 4, 5, 6 and 7 weeks.
4. Leaf explants producing friable calli were scored in order to calculate the callus induction frequency (percentage of leaf explants that produced friable calli).

| SMILES | callus formation [1] | average number of shoots per explant ([2]; genotype 1, callus induced with 0.01 μM TSA, control 4.7) | average number of shoots per explant ([2]; genotype 2, callus induced with 0.01 μM TSA, control 2.4) | regeneration of shoots from produced calli ([2]; genotype 3 (high level of recalcitrance), callus induced with 0.01 μM TSA) | number of regenerated shoots per explant ([2]; genotype S706, FIGS. 3C and 4C, vs control) | proportion of cells undergoing embryogenic growth [3] | induction of callus growth [4] | number of leaf explants with developing calli ([5]; after 28 days, without TSA not reached even after 49 days) | genotype-dependent recalcitrance to callus formation ([5]; first initial tests, TSA added) | average callus induction frequency ([5]; genotype 1, 0.01 μM TSA, control without TSA 66.3%) | callus induction frequency ([5]; genotype 2, 0.01 μM TSA vs control) | callus induction frequency ([5]; genotype 3 (high level of recalcitrance), 0.01 μM TSA) | speed of callus formation ([5]; genotype S706, FIG. 5, vs medium without TSA) | callus amount per leaf explant ([5]; genotype S706, FIGS. 3B and 4B, vs medium without TSA) | callus induction frequency (percentage of leaf explants that produced friable calli) ([5]; genotype S706, TSA 0.01 μM to 1.0 μM in callus induction medium, vs medium without TSA) |
| --- | --- | --- | --- | --- | --- | --- | --- | --- | --- | --- | --- | --- | --- | --- | --- |
| CC(/C=C/C(=O)NO)=C\[C@@H](C)C(=O)c1ccc(N(C)C)cc1 [TSA, trichostatin A] | defective callus formation | 7.7 | 4.6 | able to regenerate shoots only when the calli were produced in medium containing TSA; also recorded: only possible if the callus has been induced in the presence of TSA | increased | large increase | did not induce callus growth | high number | could be reduced | 82% | no significant increase | very low | accelerates | increases | increased |
| c1coc(CNc2ncnc3[nH]cnc23)c1 [Kinetin] | – | – | – | – | – | – | did not induce callus growth | – | – | – | – | – | – | – | – |
